Reference: ChEMBL document CHEMBL3627608, “Crystal structures of human RIP2 kinase catalytic domain complexed with ATP-competitive inhibitors: Foundations for understanding inhibitor selectivity” (Bioorg Med Chem, 2015)

Columns and labels:
[1] = biological target: CDK6/cyclin D3 (Homo sapiens) (UniProt P30281+Q00534); assay: Inhibition of CDK6/cyclin D3 (unknown origin) at 10 uM after 120 mins P33 radiolabeled kinase activity assay; format: protein-complex assay
[2] = biological target: Cyclin-dependent kinase 4/cyclin D1 (Homo sapiens) (UniProt P11802+P24385); assay: Inhibition of CDK4/cyclin D1 (unknown origin) at 10 uM after 120 mins P33 radiolabeled kinase activity assay; format: protein-complex assay
[3] = biological target: Bone morphogenetic protein receptor type-1A (Homo sapiens) (UniProt P36894); assay: Inhibition of ALK3 (unknown origin) at 10 uM after 120 mins P33 radiolabeled kinase activity assay
[4] = biological target: Calcium/calmodulin-dependent protein kinase type II subunit delta (Homo sapiens) (UniProt Q13557); assay: Inhibition of CAMK2delta (unknown origin) at 10 uM after 120 mins P33 radiolabeled kinase activity assay
Calcium/calmodulin-dependent protein kinase type II subunit delta (Homo sapiens), sequence (Q13557 whole entry): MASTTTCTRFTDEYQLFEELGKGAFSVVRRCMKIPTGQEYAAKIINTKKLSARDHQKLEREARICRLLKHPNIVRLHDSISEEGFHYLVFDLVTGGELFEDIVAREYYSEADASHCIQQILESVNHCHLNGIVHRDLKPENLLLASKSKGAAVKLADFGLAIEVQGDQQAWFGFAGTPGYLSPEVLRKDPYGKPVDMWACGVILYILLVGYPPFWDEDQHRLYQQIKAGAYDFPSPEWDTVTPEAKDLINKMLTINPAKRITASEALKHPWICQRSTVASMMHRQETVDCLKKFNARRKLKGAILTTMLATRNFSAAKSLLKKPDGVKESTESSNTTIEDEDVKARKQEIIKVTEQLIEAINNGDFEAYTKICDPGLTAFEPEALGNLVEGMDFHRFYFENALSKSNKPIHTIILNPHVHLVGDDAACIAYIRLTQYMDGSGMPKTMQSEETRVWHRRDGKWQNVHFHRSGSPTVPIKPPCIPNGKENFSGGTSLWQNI

[5] = biological target: Ribosomal protein S6 kinase beta-1 (Homo sapiens) (UniProt P23443); assay: Inhibition of RPS6KB1 (unknown origin) at 10 uM after 120 mins P33 radiolabeled kinase activity assay
Ribosomal protein S6 kinase beta-1 (Homo sapiens), sequence (P23443 whole entry, looked up): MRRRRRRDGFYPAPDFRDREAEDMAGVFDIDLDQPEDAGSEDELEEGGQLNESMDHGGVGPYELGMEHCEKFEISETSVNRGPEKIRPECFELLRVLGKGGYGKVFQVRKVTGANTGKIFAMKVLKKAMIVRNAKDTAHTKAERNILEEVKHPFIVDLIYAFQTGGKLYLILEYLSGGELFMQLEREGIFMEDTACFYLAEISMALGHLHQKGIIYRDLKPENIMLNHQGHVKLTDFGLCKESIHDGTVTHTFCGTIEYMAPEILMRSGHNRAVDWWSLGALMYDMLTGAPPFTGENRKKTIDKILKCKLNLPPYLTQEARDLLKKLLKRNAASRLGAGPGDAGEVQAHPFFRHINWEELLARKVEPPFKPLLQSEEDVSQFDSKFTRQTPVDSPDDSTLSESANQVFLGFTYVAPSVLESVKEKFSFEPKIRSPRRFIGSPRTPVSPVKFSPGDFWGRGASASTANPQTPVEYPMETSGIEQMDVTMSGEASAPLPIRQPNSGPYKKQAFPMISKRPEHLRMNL

[6] = biological target: Receptor-interacting serine/threonine-protein kinase 2 (Homo sapiens, UniProt O43353); assay: Inhibition of full-length FLAG-6His-TEV tagged human RIP2 expressed in Sf9 cells by fluorescent polarization assay
Receptor-interacting serine/threonine-protein kinase 2, sequence (O43353 whole entry): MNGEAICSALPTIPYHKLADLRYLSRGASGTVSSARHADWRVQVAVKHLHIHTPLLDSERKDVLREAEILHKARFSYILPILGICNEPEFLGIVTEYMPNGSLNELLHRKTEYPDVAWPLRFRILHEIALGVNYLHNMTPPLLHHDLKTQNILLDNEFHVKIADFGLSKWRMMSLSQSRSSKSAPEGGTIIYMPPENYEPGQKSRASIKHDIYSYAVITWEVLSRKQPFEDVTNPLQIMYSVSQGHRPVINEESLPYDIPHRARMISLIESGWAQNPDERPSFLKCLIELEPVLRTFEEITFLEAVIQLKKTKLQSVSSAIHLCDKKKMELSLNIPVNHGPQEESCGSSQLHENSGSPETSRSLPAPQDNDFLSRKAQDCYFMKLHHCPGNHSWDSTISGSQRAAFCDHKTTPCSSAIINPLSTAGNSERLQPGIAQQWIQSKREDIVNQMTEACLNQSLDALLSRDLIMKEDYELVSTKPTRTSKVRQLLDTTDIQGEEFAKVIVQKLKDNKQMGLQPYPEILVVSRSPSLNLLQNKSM

[7] = biological target: Serine/threonine-protein kinase MRCK alpha (Homo sapiens) (UniProt Q5VT25); assay: Inhibition of MRCKalpha (unknown origin) at 10 uM after 120 mins P33 radiolabeled kinase activity assay
Serine/threonine-protein kinase MRCK alpha (Homo sapiens), sequence (Q5VT25 whole entry): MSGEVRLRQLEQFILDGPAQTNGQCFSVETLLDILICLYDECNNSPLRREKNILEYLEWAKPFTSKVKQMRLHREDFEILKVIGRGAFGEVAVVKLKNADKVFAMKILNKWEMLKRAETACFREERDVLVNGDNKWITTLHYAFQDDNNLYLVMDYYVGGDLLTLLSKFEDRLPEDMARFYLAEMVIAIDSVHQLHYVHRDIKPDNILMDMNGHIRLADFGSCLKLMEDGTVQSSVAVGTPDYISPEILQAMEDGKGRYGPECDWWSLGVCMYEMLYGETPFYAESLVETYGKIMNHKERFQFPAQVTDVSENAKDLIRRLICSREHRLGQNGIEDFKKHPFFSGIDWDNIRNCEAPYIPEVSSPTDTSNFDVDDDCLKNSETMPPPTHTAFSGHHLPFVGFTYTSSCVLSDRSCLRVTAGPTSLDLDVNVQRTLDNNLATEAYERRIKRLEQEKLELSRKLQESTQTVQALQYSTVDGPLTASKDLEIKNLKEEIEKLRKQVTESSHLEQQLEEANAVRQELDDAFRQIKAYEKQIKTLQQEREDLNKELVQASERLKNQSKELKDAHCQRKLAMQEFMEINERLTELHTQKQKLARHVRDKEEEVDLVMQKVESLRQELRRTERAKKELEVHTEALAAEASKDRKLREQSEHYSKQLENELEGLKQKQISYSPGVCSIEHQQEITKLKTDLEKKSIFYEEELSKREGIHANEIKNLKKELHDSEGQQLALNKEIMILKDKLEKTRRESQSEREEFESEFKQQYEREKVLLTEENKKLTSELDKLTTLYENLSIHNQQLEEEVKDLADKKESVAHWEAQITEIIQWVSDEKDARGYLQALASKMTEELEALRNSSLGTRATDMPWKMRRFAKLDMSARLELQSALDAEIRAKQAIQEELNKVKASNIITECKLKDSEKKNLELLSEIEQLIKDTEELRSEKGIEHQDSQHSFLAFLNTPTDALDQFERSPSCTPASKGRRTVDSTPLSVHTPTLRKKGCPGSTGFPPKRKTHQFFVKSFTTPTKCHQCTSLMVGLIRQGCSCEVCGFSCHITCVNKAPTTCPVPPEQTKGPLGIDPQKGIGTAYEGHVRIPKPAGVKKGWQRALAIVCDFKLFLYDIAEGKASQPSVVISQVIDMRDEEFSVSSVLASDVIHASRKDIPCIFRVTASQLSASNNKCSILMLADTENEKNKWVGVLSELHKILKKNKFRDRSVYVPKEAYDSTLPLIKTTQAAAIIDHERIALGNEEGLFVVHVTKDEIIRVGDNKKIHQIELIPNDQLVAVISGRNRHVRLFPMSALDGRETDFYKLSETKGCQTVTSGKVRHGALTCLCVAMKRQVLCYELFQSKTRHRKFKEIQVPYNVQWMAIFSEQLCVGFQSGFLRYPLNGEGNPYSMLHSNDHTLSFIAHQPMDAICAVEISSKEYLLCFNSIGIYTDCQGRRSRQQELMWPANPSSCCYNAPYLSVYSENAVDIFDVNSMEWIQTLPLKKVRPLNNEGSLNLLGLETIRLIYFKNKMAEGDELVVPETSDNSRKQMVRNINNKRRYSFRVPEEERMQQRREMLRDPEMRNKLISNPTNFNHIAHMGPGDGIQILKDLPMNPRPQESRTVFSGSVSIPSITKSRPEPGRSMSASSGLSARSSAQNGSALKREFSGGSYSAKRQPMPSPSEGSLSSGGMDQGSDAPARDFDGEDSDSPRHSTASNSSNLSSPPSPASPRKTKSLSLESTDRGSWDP

[8] = biological target: Mast/stem cell growth factor receptor Kit (Homo sapiens) (UniProt P10721); assay: Inhibition of c-Kit (unknown origin) at 10 uM after 120 mins P33 radiolabeled kinase activity assay
Mast/stem cell growth factor receptor Kit (Homo sapiens), sequence (P10721 whole entry): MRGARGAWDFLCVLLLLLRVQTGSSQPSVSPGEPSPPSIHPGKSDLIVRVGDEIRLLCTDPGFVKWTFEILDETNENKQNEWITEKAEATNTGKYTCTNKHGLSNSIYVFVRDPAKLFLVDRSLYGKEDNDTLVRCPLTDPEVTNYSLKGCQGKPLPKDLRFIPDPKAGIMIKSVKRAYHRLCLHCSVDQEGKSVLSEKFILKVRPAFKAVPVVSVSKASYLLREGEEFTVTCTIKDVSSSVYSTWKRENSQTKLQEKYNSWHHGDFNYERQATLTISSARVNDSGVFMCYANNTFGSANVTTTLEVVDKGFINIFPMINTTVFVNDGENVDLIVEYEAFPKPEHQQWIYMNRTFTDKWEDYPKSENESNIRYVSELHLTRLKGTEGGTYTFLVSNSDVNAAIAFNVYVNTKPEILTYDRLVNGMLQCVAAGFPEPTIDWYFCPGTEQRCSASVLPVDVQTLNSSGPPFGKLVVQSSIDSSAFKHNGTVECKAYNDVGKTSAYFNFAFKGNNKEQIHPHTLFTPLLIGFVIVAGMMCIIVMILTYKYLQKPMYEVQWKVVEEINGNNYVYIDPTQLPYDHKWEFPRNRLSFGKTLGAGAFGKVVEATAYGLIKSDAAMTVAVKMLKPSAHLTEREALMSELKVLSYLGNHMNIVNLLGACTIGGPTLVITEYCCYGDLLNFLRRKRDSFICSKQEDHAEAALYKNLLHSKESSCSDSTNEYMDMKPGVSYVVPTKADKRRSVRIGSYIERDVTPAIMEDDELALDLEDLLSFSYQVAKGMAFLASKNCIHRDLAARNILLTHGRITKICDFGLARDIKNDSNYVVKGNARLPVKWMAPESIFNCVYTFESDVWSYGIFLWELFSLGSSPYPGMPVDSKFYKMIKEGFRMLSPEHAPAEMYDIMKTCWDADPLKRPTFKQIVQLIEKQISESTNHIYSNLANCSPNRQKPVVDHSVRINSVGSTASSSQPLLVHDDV

[9] = biological target: CDK9/cyclin T1 (Homo sapiens) (UniProt O60563+P50750); assay: Inhibition of CDK9/cyclin T1 (unknown origin) at 10 uM after 120 mins P33 radiolabeled kinase activity assay; format: protein-complex assay
[10] = biological target: T1, Serine/threonine-protein kinase 17A (Homo sapiens) (UniProt Q9UEE5); assay: Inhibition of DRAK1 (unknown origin) at 10 uM after 120 mins P33 radiolabeled kinase activity assay
T1 sequence (whole entry): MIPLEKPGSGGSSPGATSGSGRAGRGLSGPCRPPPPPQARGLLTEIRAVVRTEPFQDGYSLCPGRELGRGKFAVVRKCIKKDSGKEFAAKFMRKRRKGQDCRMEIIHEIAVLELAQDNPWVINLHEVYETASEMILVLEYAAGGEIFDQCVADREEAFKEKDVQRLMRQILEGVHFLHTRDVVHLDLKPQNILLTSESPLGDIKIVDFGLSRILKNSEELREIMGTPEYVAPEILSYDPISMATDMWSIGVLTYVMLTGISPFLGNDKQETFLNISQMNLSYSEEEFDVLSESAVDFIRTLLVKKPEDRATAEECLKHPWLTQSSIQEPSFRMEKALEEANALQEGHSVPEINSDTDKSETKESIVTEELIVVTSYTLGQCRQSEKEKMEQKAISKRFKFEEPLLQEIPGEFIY

[11] = biological target: T2, Serine/threonine-protein kinase ULK3 (Homo sapiens) (UniProt Q6PHR2); assay: Inhibition of ULK3 (unknown origin) at 10 uM after 120 mins P33 radiolabeled kinase activity assay
T2 sequence (whole entry): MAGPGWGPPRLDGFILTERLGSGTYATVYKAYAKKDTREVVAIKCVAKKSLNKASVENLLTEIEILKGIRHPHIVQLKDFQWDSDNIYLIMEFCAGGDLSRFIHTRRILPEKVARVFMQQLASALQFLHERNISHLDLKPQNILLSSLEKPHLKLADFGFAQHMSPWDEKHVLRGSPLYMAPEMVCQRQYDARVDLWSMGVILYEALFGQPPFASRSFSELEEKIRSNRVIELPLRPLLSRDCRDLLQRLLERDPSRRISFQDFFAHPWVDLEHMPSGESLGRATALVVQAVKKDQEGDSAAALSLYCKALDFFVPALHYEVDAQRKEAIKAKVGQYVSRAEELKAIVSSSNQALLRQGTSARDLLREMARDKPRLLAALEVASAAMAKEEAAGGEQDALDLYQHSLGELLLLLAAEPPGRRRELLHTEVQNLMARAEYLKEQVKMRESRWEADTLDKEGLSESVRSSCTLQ

[12] = species: Homo sapiens; assay: Inhibition of PKG1beta (unknown origin) at 10 uM after 120 mins P33 radiolabeled kinase activity assay
[13] = biological target: Mitogen-activated protein kinase kinase kinase 11 (Homo sapiens) (UniProt Q16584); assay: Inhibition of MLK3 (unknown origin) at 10 uM after 120 mins P33 radiolabeled kinase activity assay
[14] = biological target: Dual specificity mitogen-activated protein kinase kinase 2 (Homo sapiens) (UniProt P36507); assay: Inhibition of MEK2 (unknown origin) at 10 uM after 120 mins P33 radiolabeled kinase activity assay
Dual specificity mitogen-activated protein kinase kinase 2 (Homo sapiens), sequence (P36507 whole entry): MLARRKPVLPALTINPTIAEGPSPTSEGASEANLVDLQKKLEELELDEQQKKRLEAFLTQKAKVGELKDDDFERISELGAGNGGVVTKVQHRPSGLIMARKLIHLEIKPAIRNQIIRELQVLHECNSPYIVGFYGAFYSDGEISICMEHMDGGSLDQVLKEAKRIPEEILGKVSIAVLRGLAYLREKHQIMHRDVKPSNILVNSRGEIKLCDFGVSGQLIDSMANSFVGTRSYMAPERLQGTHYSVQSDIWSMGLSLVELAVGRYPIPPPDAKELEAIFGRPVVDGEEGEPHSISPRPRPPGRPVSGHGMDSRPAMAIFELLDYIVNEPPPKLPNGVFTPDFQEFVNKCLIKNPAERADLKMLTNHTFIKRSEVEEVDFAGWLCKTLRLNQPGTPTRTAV

[15] = biological target: T3, Inhibitor of nuclear factor kappa-B kinase subunit alpha (Homo sapiens) (UniProt O15111); assay: Inhibition of IKKalpha (unknown origin) at 10 uM after 120 mins P33 radiolabeled kinase activity assay
T3 sequence (whole entry): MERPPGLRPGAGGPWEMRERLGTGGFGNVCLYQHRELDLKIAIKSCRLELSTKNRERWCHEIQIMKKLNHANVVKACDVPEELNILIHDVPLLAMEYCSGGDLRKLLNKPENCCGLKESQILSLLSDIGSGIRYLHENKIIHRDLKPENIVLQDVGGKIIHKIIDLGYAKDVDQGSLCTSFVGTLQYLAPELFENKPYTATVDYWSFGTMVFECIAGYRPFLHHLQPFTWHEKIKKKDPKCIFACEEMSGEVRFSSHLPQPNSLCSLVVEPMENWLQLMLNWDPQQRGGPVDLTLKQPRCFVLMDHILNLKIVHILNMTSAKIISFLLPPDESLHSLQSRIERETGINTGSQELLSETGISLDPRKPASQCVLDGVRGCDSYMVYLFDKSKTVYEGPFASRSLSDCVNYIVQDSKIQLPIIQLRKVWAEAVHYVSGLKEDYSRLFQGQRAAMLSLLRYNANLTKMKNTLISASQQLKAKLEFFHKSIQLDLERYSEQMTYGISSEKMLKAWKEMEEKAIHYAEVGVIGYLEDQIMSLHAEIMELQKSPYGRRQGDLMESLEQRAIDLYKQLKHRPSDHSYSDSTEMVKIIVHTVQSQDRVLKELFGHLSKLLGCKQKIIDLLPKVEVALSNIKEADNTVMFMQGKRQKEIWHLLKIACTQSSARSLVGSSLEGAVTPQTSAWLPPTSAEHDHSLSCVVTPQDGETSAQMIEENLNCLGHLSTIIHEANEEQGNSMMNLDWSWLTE

inhibition [1] [%] | inhibition [2] [%] | inhibition [3] [%] | inhibition [4] [%] | inhibition [5] [%] | IC50 [6] [nM] | inhibition [7] [%] | inhibition [8] [%] | inhibition [9] [%] | inhibition [10] [%] | inhibition [11] [%] | inhibition [12] [%] | inhibition [13] [%] | inhibition [14] [%] | inhibition [15] [%] | Structure (SMILES)
83.8 | 74.5 | 75.5 | 7.04 | 48.5 | 7.9 | 13 | 77.7 | 25.4 | 1.47 | 89.6 | 2.75 | 92.7 | 79 | 3.48 | CS(=O)(=O)c1cccc(Nc2nccc(-c3sc(N4CCOCC4)nc3-c3cccc(NS(=O)(=O)c4c(F)cccc4F)c3)n2)c1
5.8 | -1.3 | -9.9 | -0.09 | 6.1 | 500 | 8.76 | 5.79 | 5.79 | 5.43 | -5.07 | -4.49 | 6.84 | -5.83 | 2.39 | COCCNC(=O)c1ccc2c(c1)nc(-c1cnc(-c3ccc(Cl)cc3)[nH]1)n2CCOC
43.8 | 43 | -6.2 | 3.15 | 84.2 | 320 | 30.5 | 84.9 | 78.7 | 8.49 | 31.7 | 15.2 | 60.1 | 52.5 | 11.2 | CC(C)(C)c1cc(NC(=O)Nc2ccc(Oc3ccncc3)cc2)no1
